Test results taken from US5387585A, “Imidazodiazepine derivatives” (Hoffmann-La Roche Inc., priority 1991, dated 1995).
pIC50: −log10 of the molar value.

Assays:
[1] = test system: female mice (Charles-River); assay: Reversal of the action of meclonazepam in the rotating rod test; assay type: in vivo; conditions: iv, 0.5 h; mouse, i.v., after 5 mg/kg meclonazepam i.p.; 50% of animals remain on rod; read-out: Anti-meclonazepam, rotating rod, mouse, ID50
Procedure: Reversal of the action of meclonazepam in the rotating rod test
Test description: female mice (Charles-River, Pans) weighing 19-21 g are used, They have free access to feed and drinking water up to 1 h; before the beginning of the test. They are brought into the test laboratory at lent 30 min. before the test.
In the rotating rod test the animals are placed on a horizontally arranged, smooth metal rod having a diameter of 3 cm, which is rotated at 2 revolutions per min. Initially, the animals are given the opportunity of familiarizing themselves with the test situation for 30sec. Subsequently, those animals which succeed in remaining on the rod for at least 1 min. are selected.
Determination of the reversal of the activity of meclonazepam: 5 mg/kg of meclonazepam are administered intraperitonally to the animals as a suspension in a 0.3% aqueous Tween 80 solution. This causes an inability to stay on the rotating red, which lasts for several hours. 20 min. later, a fine suspension of the test preparation in a 0.3% Tween 80 solution in water is administered intravenously. 30 min. later, it is determined whether the animals can stay on the rod for at least I min. The dosage at which 50% of the animals are capable of remaining on the rod is determined (ID50).

[2] = target: central benzodiazepine receptors; assay: 3H-Flumazenil binding test in vitro; conditions: inhibition of specific binding of tritiated flumazenil, rat cortex
Procedure: 3H-Flumazenil binding test
The affinity of compounds of formula I to the central benzodiazepine receptors was established in vitro according to the methods described in Nature 294, 763-765 (1981) and J. Neurochemistry 37, 714-722 (1981). According to these methods, the inhibition of the binding of tritiated flumazenil to the specific benzodiazepine receptors in the cortex of rats by the respective test substances is determined. The IC50 ("50% inhibiting concentration") denotes that concentration of the respective test substance which brings about a 50 percent inhibition of the specific binding of tritiated flumazenil to the specific benzodiazepine receptors in the cortex of rats.

rat = assay: Conflict test in the rat; assay type: in vivo; conditions: po, 30 minutes before the 1-hour conflict test, read-out: Conflict test, rat, FSD (first significant anxiolytically-active dosage)
Procedure: The test apparatus is a one-key Skinner box having a feed pellet dispenser. At least 8 hungry rats are usually employed per substance and dosage for the testing of potential anxiolytics. Rats which respond to the known anxiolytic chlorodiazepoxide are used. The test substances, which are dissolved or suspended in a mixture of 10 ml of distilled water and 2 drops of Tween 80, are administered to the test animals by means of a probang 30 minutes before the 1-hour conflict test. During the test, in which each press of the key for a feed pellet is combined with a foot shock (conflict), the number key activations is registered. Each test animal serves as its own control in that it is pre-treated once with test substance and once with sodium chloride solution.
The first significant anxiolytically-active dosage (FSD) is determined with the Wilcoxon test (comparison of pairs) by comparing directly the number of key activations in the main test (feed pellet +foot shock after pre-treatment with test substance) with the number of key activations in the control test (feed pellet +foot shock after pre-treatment with sodium chloride solution).

Male DBA 2J mice = assay: Audiogenic seizures (anticonvulsive test); assay type: in vivo; conditions: po, 0.5 h; mouse, p.o., prevention of tonic convulsions in 50% of animals, 30 minutes before test; read-out: Audiogenic seizure, mouse, ED50
Procedure: The anticonvulsive properties of the compounds of formula I can be determined, for example, in the test described hereinafter.
The test apparatus is a soundproofed one-key box having a built-in sound source. Male DBA 2J mice aged 21 days and weighing 7-11 g are employed for the testing of the substances. These mice are an animal model for epilepsy in which sonic irradiation causes seizures. The test substances are employed as aqueous suspensions of different concentration and are administered to the experimental animals orally or intraperitonally in an amount of 10 ml/kg 30 minutes before the beginning of the test. The test animals are exposed for 60 seconds to a sonic irradiation of 110 dB/14 KHz. This produces in untreated animals symptoms such as racing around, cronic seizures and tonic convulsions. The ED50 value, that is, that dosage of a test substance which in :50% of the test animals prevents the tonic convulsions caused by the sonic irradiation, is determined.

| SMILES | ED50 [1] [mg/kg] | pIC50 [2] | minimal effective dose (rat) [mg/kg] | ED50 (Male DBA 2J mice) [mg/kg] |
| --- | --- | --- | --- | --- |
| c1ccc2c(c1)-c1ncnn1Cc1c(-c3nc(C4CC4)no3)ncn1-2 [A, 10-(3-cyclopropyl-1,2,4-oxadiazol-5-yl)-9H-imidazo[1,5-a][1,2,4]triazolo[1,5-d][1,4]benzodiazepine] | 1.5 | 8.89 | 0.3 |  |
| Fc1ccc2c(c1)-c1ncnn1Cc1c(-c3nc(C4CC4)no3)ncn1-2 [B, 10-(3-cyclopropyl-1,2,4-oxadiazol-5-yl)-3-fluoro-9H-imidazo[1,5-a][1,2,4]triazolo[1,5-d][1,4]benzodiazepine] | 0.8 | 8.60 | 0.1 | 0.27 |
| Fc1ccc2c(c1)-c1ncnn1Cc1c(-c3noc(C4CC4)n3)ncn1-2 [C, 10-(5-cyclopropyl-1,2,4-oxadiazol-3-yl)-3-fluoro-9H-imidazo[1,5-a][1,2,4]triazolo[1,5-d][1,4]benzodiazepine] | 0.17 | 9.04 | 0.003 | 0.015 |
| c1ccc2c(c1)-c1ncnn1Cc1c(-c3noc(C4CC4)n3)ncn1-2 [D, 10-(5-cyclopropyl-1,2,4-oxadiazol-3-yl)-9H-imidazo[1,5-a][1,2,4]triazolo[1,5-d][1,4]benzodiazepine] | 0.08 | 9.48 | 3 | 4.2 |
| Clc1ccc2c(c1)-c1nccn1Cc1c(-c3noc(C4CC4)n3)ncn1-2 [E, 3-chloro-10-(5-cyclopropyl-1,2,4-oxadiazol-3-yl)-9H-diimidazo[1,5-a:1',2'-d][1,4]benzodiazepine] |  | 8.54 | 1 | 0.21 |
| CCOCc1nc(-c2ncn3c2Cn2ncnc2-c2cc(F)ccc2-3)no1 [F, 10-[5-(ethoxymethyl)-1,2,4-oxadiazol-3-yl]-3-fluoro-9H-imidazo[1,5-a][1,2,4]triazolo[1,5-d][1,4]benzo-diazepine] | 1.8 | 8.52 | 0.1 | 0.11 |
| Clc1cccc2c1-c1ncnn1Cc1c(-c3noc(C4CC4)n3)ncn1-2 [G, 4-Chloro-10-(5-cyclopropyl-1,2,4-oxadiazol-3-yl)-9H-imidazo[1,5-a][1,2,4]triazolo[1,5-d][1,4]benzodiazepine] | 0.0047 | 9.22 |  |  |
| Clc1cccc2c1-c1nccn1Cc1c(-c3nc(C4CC4)no3)ncn1-2 [H, 4-chloro-10-(3-cyclopropyl-1,2,4-oxadiazol-5-yl)-9H-diimidazo[1,5-a:1',2'-d][1,4]benzodiazepine] | 0.1 | 9.54 | 0.001 | 0.0039 |
| Clc1cccc2c1-c1nccn1Cc1c(-c3noc(C4CC4)n3)ncn1-2 [I, 4-chloro-10-(5-cyclopropyl-1,2,4-oxadiazol-3-yl)-9H-diimidazo[1,5-a:1',2'-d][1,4]benzodiazepine] |  | 9.52 | 0.03 | 0.00011 |
